Data published in patent US10722520B2, “Heterocyclic compounds and their use in preventing or treating bacterial infections” (MUTABILIS, priority 2016, dated 2020).
Counter-ions that a name gives are not always drawn. Like-named read-outs stand apart in the source and are kept apart here.

How the values were obtained:
KPC-2 = KPC-2 (Klebsiella pneumoniae, UniProt Q9F663)
AmpC (P99) = AmpC (P99) (Enterobacter cloacae, UniProt P05364); assay: biochemical
OXA-1 = OXA-1 (Escherichia coli, UniProt P13661)
AmpC (PAE) = AmpC (PAE) (Pseudomonas aeruginosa, UniProt P24735); assay: biochemical
CMY-37 = CMY-37 (Citrobacter freundii, UniProt P05193); conditions: read-out: IC50 β-lactamase CMY-37
SHV-1 = SHV-1 (Klebsiella pneumoniae, UniProt P0AD64)
TEM-1 = TEM-1 (Escherichia coli, UniProt P62593)
CTX-M-15 = CTX-M-15 (Escherichia coli, UniProt Q9EXV5)
OXA-48 = OXA-48 (Klebsiella pneumoniae, UniProt Q6XEC0)
OXA-11 = OXA-11 (Pseudomonas aeruginosa, UniProt Q06778)
OXA-15 = OXA-15 (Pseudomonas aeruginosa, UniProt Q51574); assay: biochemical
K. pneumoniae 6299 = assay: MIC of compound alone, broth microdilution; format: cell-based; conditions: Klebsiella pneumoniae; strain 6299; compound alone; read-out: MIC compounds of the invention alone
Procedure: (§1) Log phase bacterial suspensions were adjusted to a final density of 5×10^5 cfu/mL in cation-adjusted Mueller-Hinton broth (Becton-Dickinson) and added to each well (98 μL). Microplates were incubated for 16-20 h at 35° C. in ambient air. The MIC of the compounds was defined as the lowest concentration of said compounds that prevented bacterial growth as read by visual inspection.

P. aeruginosa CIP107051 = assay: MIC of compound alone, broth microdilution; format: cell-based; conditions: Pseudomonas aeruginosa; strain CIP107051; compound alone; read-out: MIC compounds of the invention alone
Procedure: as §1

E. cloacae P99 = assay: MIC of compound alone, broth microdilution; format: cell-based; conditions: Enterobacter cloacae; strain P99; compound alone; read-out: MIC compounds of the invention alone
Procedure: as §1

E. coli 190317 = assay: MIC of compound alone, broth microdilution; format: cell-based; conditions: Escherichia coli; strain 190317; compound alone; read-out: MIC compounds of the invention alone
Procedure: as §1

K. pneumoniae BAA-1898 = assay: MIC of compound alone, broth microdilution; format: cell-based; conditions: Klebsiella pneumoniae, BAA1898; strain BAA-1898; compound alone; read-out: MIC compounds of the invention alone
Procedure: as §1

[1] = class (C), nitrocefin 200 μM, 30-min pre-incubation, enzyme 0.2 nM

SMILES | IC50 (KPC-2) | IC50 (AmpC (P99)) | IC50 (OXA-1) | IC50 (AmpC (PAE)) | IC50 (CMY-37; [1]) | IC50 (SHV-1) | IC50 (TEM-1) | IC50 (CTX-M-15) | IC50 (OXA-48) | IC50 (OXA-11) | IC50 (OXA-15) | MIC (K. pneumoniae 6299) | MIC (P. aeruginosa CIP107051) | MIC (E. cloacae P99) | MIC (E. coli 190317) | MIC (K. pneumoniae BAA-1898) | IC50 (CMY-37)
CC(=NOCCN)c1ccn(C2=CC3CN(C2)C(=O)N3OS(=O)(=O)O)n1 (mixture of isomers) [Example 29, (7-oxo-3-(3-[(Z,E)-N-(2-aminoethoxy)-C-methyl-carbonimidoyl]-pyrazol-1-yl)-1,6-diazabicyclo[3.2.1]oct-3-en-6-yl) hydrogen sulfate] | 8.7 nM | 25 nM | 150 nM | 190 nM | 35 nM | 1.1 nM | 0.21 nM | 0.55 nM | 3 nM | 31 nM | 51 nM | > 32 µg/mL | > 32 µg/mL | 32 µg/mL | 8 µg/mL | 32 µg/mL | –
NC(=O)c1cnn(C2=CC3CN(C2)C(=O)N3OS(=O)(=O)[O-])c1.[Na+] (stereo not drawn) [Example 7, sodium [3-(4-carbamoylpyrazol-1-yl)-7-oxo-1,6-diazabicyclo[3.2.1]oct-3-en-6-yl]sulfate] | 12 nM | 21 nM | 250 nM | 400 nM | – | 4.7 nM | 0.72 nM | 2.7 nM | 7.8 nM | 93 nM | 55 nM | > 32 µg/mL | > 32 µg/mL | > 32 µg/mL | 16 µg/mL | > 32 µg/mL | 22 nM
N#Cc1cnn(C2=CC3CN(C2)C(=O)N3OS(=O)(=O)[O-])c1.[Na+] (stereo not drawn) [Example 8, sodium [3-(4-cyanopyrazol-1-yl)-7-oxo-1,6-diazabicyclo[3.2.1]oct-3-en-6-yl]sulfate] | 3.3 nM | 7.6 nM | 100 nM | 140 nM | – | 2.5 nM | 0.35 nM | 0.78 nM | 3.5 nM | 20 nM | 5.3 nM | > 32 µg/mL | > 32 µg/mL | > 32 µg/mL | 8 µg/mL | > 32 µg/mL | 16 nM
COc1cnn(C2=CC3CN(C2)C(=O)N3OS(=O)(=O)[O-])c1.[Na+] (stereo not drawn) [Example 9, sodium [7-oxo-3-(4-methoxypyrazol-1-yl)-1,6-diazabicyclo[3.2.1]oct-3-en-6-yl]sulfate] | 22 nM | 15 nM | 410 nM | 29 nM | – | 1.9 nM | 0.41 nM | 0.5 nM | 7 nM | 310 nM | 55 nM | > 32 µg/mL | > 32 µg/mL | > 32 µg/mL | > 32 µg/mL | > 32 µg/mL | 9.3 nM
NCCc1ccn(C2=CC3CN(C2)C(=O)N3OS(=O)(=O)O)n1 (stereo not drawn) [Example 10, [3-[3-(2-aminoethyl)pyrazol-1-yl]-7-oxo-1,6-diazabicyclo[3.2.1]oct-3-en-6-yl]hydrogen sulfate] | 50 nM | 22 nM | 270 nM | 160 nM | 18 nM | 3.2 nM | 0.3 nM | 1.1 nM | 14 nM | 67 nM | 180 nM | > 32 µg/mL | 32 µg/mL | 8 µg/mL | 1 µg/mL | 16 µg/mL | –
O=C(NCCO)c1ccn(C2=CC3CN(C2)C(=O)N3OS(=O)(=O)[O-])n1.[Na+] (stereo not drawn) [Example 11, sodium [3-[3-(2-hydroxyethylcarbamoyl)pyrazol-1-yl]-7-oxo-1,6-diazabicyclo[3.2.1]oct-3-en-6-yl]sulfate] | 12 nM | 27 nM | 95 nM | 430 nM | – | 7.6 nM | 1.2 nM | 1.4 nM | 7.7 nM | 21 nM | 78 nM | > 32 µg/mL | > 32 µg/mL | 32 µg/mL | 16 µg/mL | > 32 µg/mL | 53 nM
